In patent publication US8658685B2, “Methods for treatment of kallikrein-related disorders” (Activesite Pharmaceuticals, Inc., priority 2008, dated 2014):

What was measured:
[1] = biological target: purified human plasma kallikrein (PK) (Homo sapiens, UniProt P03952); assay: Inhibitor profile of ASP-440: plasma kallikrein; type: biochemical
Factor XIIa = biological target: T1, Factor XIIa (Homo sapiens, UniProt P00748); assay: Inhibitor profile of ASP-440: Factor XIIa; type: biochemical
T1 sequence (P00748 373-615 limits assumed): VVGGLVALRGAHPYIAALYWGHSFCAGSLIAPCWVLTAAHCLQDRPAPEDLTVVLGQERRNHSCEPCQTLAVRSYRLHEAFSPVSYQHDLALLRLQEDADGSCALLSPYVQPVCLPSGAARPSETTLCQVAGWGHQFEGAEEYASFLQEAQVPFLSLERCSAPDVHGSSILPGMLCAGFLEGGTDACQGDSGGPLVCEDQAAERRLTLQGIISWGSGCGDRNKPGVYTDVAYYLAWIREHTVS

Factor XIa = Factor XIa (Homo sapiens, UniProt P03951); assay: Inhibitor profile of ASP-440: Factor XIa; type: biochemical
Factor XIa, sequence (P03951 388-625 limits assumed): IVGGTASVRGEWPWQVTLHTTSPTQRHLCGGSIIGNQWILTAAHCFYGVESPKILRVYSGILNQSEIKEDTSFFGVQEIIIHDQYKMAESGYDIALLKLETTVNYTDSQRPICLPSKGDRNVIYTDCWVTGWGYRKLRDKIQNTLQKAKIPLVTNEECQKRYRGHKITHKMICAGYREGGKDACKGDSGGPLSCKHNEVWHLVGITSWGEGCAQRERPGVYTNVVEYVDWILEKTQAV
Factor XIa, sequence (P03951 19-387 partner limits assumed): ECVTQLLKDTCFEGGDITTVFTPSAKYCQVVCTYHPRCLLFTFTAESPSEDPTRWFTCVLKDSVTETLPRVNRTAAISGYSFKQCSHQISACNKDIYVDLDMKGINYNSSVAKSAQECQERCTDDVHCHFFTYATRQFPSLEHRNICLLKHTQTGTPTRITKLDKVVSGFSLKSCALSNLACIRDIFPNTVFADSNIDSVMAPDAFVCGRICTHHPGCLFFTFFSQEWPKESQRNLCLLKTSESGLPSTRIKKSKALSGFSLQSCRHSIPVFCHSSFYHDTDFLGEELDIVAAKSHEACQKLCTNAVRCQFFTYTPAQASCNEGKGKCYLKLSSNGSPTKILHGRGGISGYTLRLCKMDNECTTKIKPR

Factor IXa = Factor IXa (Homo sapiens, UniProt P00740); assay: Inhibitor profile of ASP-440: Factor IXa; type: biochemical
Factor IXa, sequence (P00740 227-461 limits assumed): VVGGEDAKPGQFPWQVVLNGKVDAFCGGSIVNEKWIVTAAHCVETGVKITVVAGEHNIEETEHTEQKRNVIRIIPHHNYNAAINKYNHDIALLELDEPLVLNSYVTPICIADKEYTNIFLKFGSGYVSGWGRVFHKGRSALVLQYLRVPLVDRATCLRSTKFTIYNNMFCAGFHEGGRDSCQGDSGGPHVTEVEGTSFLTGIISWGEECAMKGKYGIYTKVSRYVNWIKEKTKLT
Factor IXa, sequence (P00740 47-191 partner limits assumed): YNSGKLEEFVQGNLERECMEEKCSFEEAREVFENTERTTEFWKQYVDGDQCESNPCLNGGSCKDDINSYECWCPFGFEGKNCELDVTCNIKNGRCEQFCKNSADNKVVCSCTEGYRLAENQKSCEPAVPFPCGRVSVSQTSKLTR

[2] = biological target: Tissue Factor-Factor VIIa (Homo sapiens, UniProt P08709); assay: Inhibitor profile of ASP-440: Tissue Factor-Factor VIIa; type: biochemical
Tissue Factor-Factor VIIa, sequence (P08709 213-466 limits assumed): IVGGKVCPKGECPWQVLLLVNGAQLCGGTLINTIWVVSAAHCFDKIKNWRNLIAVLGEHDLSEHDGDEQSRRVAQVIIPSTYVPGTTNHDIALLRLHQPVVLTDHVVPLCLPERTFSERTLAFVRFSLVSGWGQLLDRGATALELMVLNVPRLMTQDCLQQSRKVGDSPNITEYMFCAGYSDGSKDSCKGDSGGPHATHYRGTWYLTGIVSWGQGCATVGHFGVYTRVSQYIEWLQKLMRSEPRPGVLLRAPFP
Tissue Factor-Factor VIIa, sequence (P08709 61-212 partner limits assumed): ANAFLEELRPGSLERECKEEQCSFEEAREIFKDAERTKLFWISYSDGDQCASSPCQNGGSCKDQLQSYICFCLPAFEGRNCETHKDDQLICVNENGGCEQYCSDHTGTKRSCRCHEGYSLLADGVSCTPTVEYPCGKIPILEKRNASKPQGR
Tissue Factor-Factor VIIa, sequence (P13726 33-295 partner): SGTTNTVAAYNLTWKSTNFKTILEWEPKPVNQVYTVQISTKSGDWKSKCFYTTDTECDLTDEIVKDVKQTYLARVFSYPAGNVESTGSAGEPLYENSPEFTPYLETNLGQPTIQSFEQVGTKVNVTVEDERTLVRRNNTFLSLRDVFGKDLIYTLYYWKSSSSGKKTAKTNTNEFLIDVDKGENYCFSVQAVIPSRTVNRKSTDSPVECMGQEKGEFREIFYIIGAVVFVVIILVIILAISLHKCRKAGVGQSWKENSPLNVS

Factor Xa = Factor Xa (Homo sapiens, UniProt P00742); assay: Inhibitor profile of ASP-440: Factor Xa; type: biochemical
Factor Xa, sequence (P00742 235-488 limits assumed): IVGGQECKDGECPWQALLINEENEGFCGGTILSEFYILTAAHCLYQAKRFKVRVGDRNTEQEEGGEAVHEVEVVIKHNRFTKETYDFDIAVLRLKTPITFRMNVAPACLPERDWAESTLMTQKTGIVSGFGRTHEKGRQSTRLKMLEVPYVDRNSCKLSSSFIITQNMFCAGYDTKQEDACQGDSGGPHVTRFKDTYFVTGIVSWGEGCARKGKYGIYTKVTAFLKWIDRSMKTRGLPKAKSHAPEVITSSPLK
Factor Xa, sequence (P00742 41-179 partner limits assumed): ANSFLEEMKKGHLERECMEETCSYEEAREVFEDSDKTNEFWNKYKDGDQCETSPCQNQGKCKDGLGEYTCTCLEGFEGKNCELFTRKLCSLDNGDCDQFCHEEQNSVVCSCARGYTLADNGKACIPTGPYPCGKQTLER

Thrombin = Thrombin (Homo sapiens, UniProt P00734); assay: Inhibitor profile of ASP-440: Thrombin; type: biochemical
Plasmin = Plasmin (Homo sapiens, UniProt P00747); assay: Inhibitor profile of ASP-440: Plasmin; type: biochemical
Plasmin, sequence (P00747 581-810 limits assumed, species assumed): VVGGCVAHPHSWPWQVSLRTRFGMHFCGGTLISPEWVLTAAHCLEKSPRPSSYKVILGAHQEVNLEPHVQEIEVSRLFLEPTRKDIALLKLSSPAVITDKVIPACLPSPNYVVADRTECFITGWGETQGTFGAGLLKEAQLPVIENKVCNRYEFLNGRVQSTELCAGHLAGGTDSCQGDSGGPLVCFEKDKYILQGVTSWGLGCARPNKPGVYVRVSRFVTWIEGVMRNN
Plasmin, sequence (P00747 97-580 partner limits assumed, species assumed): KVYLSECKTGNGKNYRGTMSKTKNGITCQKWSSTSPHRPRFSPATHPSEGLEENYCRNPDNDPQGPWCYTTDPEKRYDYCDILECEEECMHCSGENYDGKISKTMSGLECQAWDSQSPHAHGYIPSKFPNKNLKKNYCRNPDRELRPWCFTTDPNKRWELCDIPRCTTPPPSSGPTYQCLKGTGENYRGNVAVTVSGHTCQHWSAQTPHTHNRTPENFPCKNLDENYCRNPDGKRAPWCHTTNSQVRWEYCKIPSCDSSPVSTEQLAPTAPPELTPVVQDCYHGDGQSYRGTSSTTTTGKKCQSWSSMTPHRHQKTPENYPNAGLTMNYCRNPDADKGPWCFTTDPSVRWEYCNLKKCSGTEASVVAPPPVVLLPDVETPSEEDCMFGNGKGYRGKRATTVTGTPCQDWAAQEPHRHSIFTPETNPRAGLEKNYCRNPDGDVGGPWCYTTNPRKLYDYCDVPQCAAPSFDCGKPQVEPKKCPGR

[3] = biological target: Porcine Pancreatic Kallikrein (Sus scrofa, UniProt P00752); assay: Inhibitor profile of ASP-440: Porcine Pancreatic Kallikrein; type: biochemical
Porcine Pancreatic Kallikrein, sequence (P00752 8-246): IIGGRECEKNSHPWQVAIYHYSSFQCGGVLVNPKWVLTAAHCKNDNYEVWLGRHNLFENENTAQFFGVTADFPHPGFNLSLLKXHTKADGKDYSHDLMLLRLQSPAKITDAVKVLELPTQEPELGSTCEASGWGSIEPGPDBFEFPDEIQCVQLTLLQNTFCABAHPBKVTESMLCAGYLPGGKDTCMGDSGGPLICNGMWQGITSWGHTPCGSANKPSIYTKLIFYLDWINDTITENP

[4] = biological target: T2, endogenous PK in human plasma (Homo sapiens, UniProt P03952); assay: Inhibition of endogenous PK in human plasma; type: biochemical; conditions: read-out: Kiapp
T2 construct: from tissue; host or cells: human plasma
T2 sequence (P03952 20-638): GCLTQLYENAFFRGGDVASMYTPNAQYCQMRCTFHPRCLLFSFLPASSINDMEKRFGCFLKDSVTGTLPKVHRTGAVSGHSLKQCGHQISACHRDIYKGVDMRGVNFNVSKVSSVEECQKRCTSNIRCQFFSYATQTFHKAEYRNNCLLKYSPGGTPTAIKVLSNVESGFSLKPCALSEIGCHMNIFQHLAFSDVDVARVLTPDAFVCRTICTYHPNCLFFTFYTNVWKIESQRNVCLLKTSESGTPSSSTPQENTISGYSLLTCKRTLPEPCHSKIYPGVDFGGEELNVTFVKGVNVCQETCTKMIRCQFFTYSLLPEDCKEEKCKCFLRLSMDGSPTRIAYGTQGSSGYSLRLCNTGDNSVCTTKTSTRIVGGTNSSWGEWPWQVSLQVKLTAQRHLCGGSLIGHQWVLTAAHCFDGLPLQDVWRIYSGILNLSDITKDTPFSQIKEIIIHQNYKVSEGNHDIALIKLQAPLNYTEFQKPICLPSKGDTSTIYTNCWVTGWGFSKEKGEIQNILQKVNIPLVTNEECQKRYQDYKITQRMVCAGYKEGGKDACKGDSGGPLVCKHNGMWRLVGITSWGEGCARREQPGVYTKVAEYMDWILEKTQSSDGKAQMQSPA

[5] = biological target: T3, endogenous PK in rat plasma (Rattus norvegicus, UniProt P14272); assay: Inhibition of endogenous PK in rat plasma; type: biochemical; conditions: read-out: Kiapp
T3 construct: from tissue; host or cells: rat plasma
T3 sequence (P14272 20-638): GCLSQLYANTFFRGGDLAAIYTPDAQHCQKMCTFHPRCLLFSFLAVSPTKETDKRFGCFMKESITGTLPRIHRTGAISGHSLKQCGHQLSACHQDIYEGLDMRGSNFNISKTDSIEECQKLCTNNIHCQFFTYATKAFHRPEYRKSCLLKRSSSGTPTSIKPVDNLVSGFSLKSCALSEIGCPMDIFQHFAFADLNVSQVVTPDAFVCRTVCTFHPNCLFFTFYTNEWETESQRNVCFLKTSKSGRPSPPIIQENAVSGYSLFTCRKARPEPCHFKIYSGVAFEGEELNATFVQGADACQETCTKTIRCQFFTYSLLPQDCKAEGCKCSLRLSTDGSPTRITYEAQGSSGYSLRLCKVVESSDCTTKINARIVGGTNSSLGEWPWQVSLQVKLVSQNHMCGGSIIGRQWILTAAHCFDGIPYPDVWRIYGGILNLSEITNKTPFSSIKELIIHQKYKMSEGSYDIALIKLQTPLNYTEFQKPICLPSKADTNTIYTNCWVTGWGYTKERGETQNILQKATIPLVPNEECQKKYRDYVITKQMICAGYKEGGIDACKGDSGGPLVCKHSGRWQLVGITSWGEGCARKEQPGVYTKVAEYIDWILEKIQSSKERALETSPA

[6] = system: intrinsic coagulation pathway; assay: Plasma coagulation time, activation with Actin FS reagent; type: biochemical; conditions: at 10 μM; plasma activated with Actin FS reagent
[7] = system: recombinant tissue factor; assay: Plasma coagulation time, activation with Innovin reagent; type: biochemical; conditions: plasma activated by Innovin reagent; concentrations up to 30 μM
[8] = system: AngII-induced retinal vascular permeability; assay: AngII-induced retinal vascular permeability in rats; type: in vivo, rat; conditions: AngII and ASP-440 via 2 Alzet pumps for 7 days; Evan's blue dye method
Method: Rats were implanted with a single subcutaneous osmotic pump containing Ang II or two pumps containing AngII and ASP-465, as indicated. RVP was measured using vitreous fluorophotometry after 3 days.
RVP was measured using Evan's blue dye method after 7 days.
We examined the effect of the kallikrein inhibitor ASP-465 on RVP induced by angiotensin II (AngII).

[9] = system: diabetes-induced retinal vascular permeability; assay: Diabetes-induced retinal vascular permeability in rats; type: in vivo, rat; conditions: STZ-induced diabetes, 28 days; subcutaneous osmotic pump; Evan's blue dye method
astrocytes [10] = assay: Plasma kallikrein-induced ERK phosphorylation in astrocytes; type: cell-based; conditions: astrocytes exposed to plasma kallikrein
Text: (§1) We have also studied the effects of plasma kallikrein pathway activation on astrocytes. […] Exposure of astrocytes to plasma kallikrein potently stimulated ERK phosphorylation, and this action of kallikrein on astrocytes is not affected by B2-R antagonism (Hoe140). The effect of kallikrein on astrocytes was blocked by leupeptin, a protease inhibitor and C1-INH (data not shown). […] This is in contrast to the bradykinin effect, which is rapid and transient (data not shown). Plasma kallikrein's effect on ERK phosphorylation in astrocytes is dose dependent, reaching a maximal effect at 100 nM kallikrein (data not shown). […] In addition, plasma kallikrein binding to astrocytes was blocked by AS-440 (FIG. 9B) and C1-INH (data not shown).

astrocytes [11] = assay: Plasma kallikrein binding to astrocytes; type: cell-based
Text: as §1

blood-induced hematoma = assay: Hematoma after intracerebral infusion of autologous blood in diabetic rats; type: in vivo, Sprague-Dawley rats; conditions: systemic treatment, 48 h after intracerebral infusion of autologous blood
Method: We have compared the response to intracerebral infusion of blood in Sprague-Dawley rats with 1 mo of STZ-induced diabetes with age matched non-diabetic control rats. Fifty μL of autologous whole blood was collected from the tail vein and immediately infused 1 mm anterior, 4 mm lateral and 6 mm in depth to the bregma using a 30 gauge needle at 20 μL per minute. The infusion needle was removed 10 min after injection and the burr hole was sealed with bone wax. Forty-eight hours after intracerebral injection, the animals were perfused with saline and surface hematoma area was examined by measurement of hematoma area relative to total hemisphere area.

[12] = system: plasma kallikrein-induced hematoma; assay: Hematoma after intracerebral injection of purified activated plasma kallikrein in diabetic rats; type: in vivo, rat; conditions: 2 hrs following plasma kallikrein injection, 24 hrs pretreatment via subcutaneous osmotic pump
Text: The increased response of diabetic rats to the model of intracerebral hemorrhage described above could be due to factors within the blood or due to an increased response in the neurovascular tissue. To evaluate the latter, we performed intracerebral injections of purified activated plasma kallikrein in rats with 1 mo of STZ-induced diabetes or age-matched non-diabetic controls. The contralateral hemisphere was subjected to an equivalent injection with saline vehicle. […]

[13] = system: ischemia-induced cerebral vascular permeability and infarct; assay: Middle cerebral artery occlusion (MCAO) in rats with 4 weeks of STZ-induced diabetes; type: in vivo, rat; conditions: vs diabetic rats receiving vehicle
Method: Rats were implanted with a single subcutaneous osmotic pump containing ASP-440, as indicated. Cerebral vascular permeability was measured using Evan's blue dye method 2 hours after occlusion.
Infarct area was measured using Triphenyltetrazolium chloride stain after 24 hours of permanent occlusion.
The effect of diabetes on cerebral vascular permeability induced by ischemia was examined in rats subjected to middle cerebral artery occlusion (MCAO). […] Cerebral vascular permeability following MCAO was increased in the diabetic rats compared with nondiabetic rats (FIG. 14). […] MCAO-induced infarct area is increased in rats with 4 weeks of diabetes compare with nondiabetic rats (FIG. 15).

purified human plasma kallikrein (PK), sequence (P03952 20-638): as the sequence (P03952 20-638) above

Ki ([1]; PlasmaKallikrein): 0.1 µM | inhibition at 1 µM ([1]; predicted inhibition at 1 μM): 91% | inhibition at 10 µM ([1]; predicted inhibition at 10 μM): 99% | mode of inhibition ([1]; purified human plasma kallikrein): competitive and reversible | Ki (Factor XIIa; Factor XIIa): > 100 µM | inhibition at 1 µM (Factor XIIa; predicted inhibition at 1 μM): 0% | inhibition at 10 µM (Factor XIIa; predicted inhibition at 10 μM): 1% | Ki (Factor XIa; Factor XIa): 120 µM | inhibition at 1 µM (Factor XIa; predicted inhibition at 1 μM): 0% | inhibition at 10 µM (Factor XIa; predicted inhibition at 10 μM): 7% | Ki (Factor IXa; Factor IXa): > 100 µM | inhibition at 1 µM (Factor IXa; predicted inhibition at 1 μM): 0% | inhibition at 10 µM (Factor IXa; predicted inhibition at 10 μM): 0% | Ki ([2]; Tissue Factor-Factor VIIa): 160 µM | inhibition at 1 µM ([2]; predicted inhibition at 1 μM): 0% | inhibition at 10 µM ([2]; predicted inhibition at 10 μM): 6% | Ki (Factor Xa; Factor Xa): 85 µM | inhibition at 1 µM (Factor Xa; predicted inhibition at 1 μM): 0% | inhibition at 10 µM (Factor Xa; predicted inhibition at 10 μM): 11% | Ki (Thrombin; Thrombin): 110 µM | inhibition at 1 µM (Thrombin; predicted inhibition at 1 μM): 1% | inhibition at 10 µM (Thrombin; predicted inhibition at 10 μM): 9% | Ki (Plasmin; Plasmin): 16 µM | inhibition at 1 µM (Plasmin; predicted inhibition at 1 μM): 6% | inhibition at 10 µM (Plasmin; predicted inhibition at 10 μM): 38% | Ki ([3]; Porcine Pancreatic Kallikrein): > 100 µM | inhibition at 1 µM ([3]; predicted inhibition at 1 μM): 0% | inhibition at 10 µM ([3]; predicted inhibition at 10 μM): 0% | Ki [4]: 0.2 µM | Ki [5]: 0.4 µM | plasma kallikrein binding to astrocytes (astrocytes [11]): blocked
SMILES: N=C(N)c1ccc(CNC(=O)c2cnn(Cc3ccccc3)c2)cc1 [ASP-440, 1-Benzyl-1H-pyrazole-4-carboxylic acid 4-carbamimidoyl-benzylamide]
prolongation of coagulation time in plasma [6]: ~50% | effect on coagulation time [7]: without measurable effect | RVP [8]: normal levels of RVP | RVP [9]: normal levels of RVP | effect of kallikrein on ERK phosphorylation (astrocytes [10]): blocked | hematoma area (blood-induced hematoma): reduced hematoma area in diabetic rats to a level comparable to that observed in non-diabetic controls | hematoma response [12]: decreased | reduction of cerebral vascular permeability ([13]; 3 days pretreatment via subcutaneous osmotic pump, MCAO for 2 hrs): about 50% | decrease of infarct area ([13]; treatment 3 days prior to MCAO, 24 hours of permanent occlusion): about 40%
